{"source": "ChEMBL document CHEMBL1121769", "about": "“5'Chloropuromycin. Inhibition of protein synthesis and antitrypanosomal activity” (J Med Chem, 1981)", "test_system": "Mus musculus", "assay": "Tested for inhibitory activity against CT strain of Trypanosoma rhodesiense infected mice after administration at 106 mg/kg; Not active; call rule not given here", "type": "functional, organism-based", "design": "dose 106 mg/kg"}
{"smiles": "COc1ccc(CC(N)C(=O)NC2C(C)OC(n3cnc4c(N(C)C)ncnc43)C2O)cc1", "note": "(stereo unspecified)", "values": [{"measurement": "IC50", "value": "Not Active"}]}
